Target: T1, recHE4 (Isavirus salaris, UniProt Q9J0Y0)
T1 sequence (Q9J0Y0 17-353): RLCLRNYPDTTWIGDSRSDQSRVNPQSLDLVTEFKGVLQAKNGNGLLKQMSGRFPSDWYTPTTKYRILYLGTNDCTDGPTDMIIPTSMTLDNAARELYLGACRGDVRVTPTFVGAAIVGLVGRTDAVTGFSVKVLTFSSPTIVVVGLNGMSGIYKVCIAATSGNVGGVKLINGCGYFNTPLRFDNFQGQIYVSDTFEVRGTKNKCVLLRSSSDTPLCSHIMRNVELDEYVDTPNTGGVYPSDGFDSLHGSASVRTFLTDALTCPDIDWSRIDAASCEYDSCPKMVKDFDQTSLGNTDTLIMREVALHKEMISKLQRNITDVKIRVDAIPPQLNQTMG
Test: fluorescence acetylesterase assay, recHE on cobalt beads
Type: biochemical
Details: 0-500 uM substrate, PBS pH 7.4, RT; bead-bound

SMILES: CC(=O)Oc1ccc2c(C)cc(=O)oc2c1 [4-methylumbelliferyl acetate]
- fluorescence acetylesterase assay, recHE on cobalt beads: recHE4 and recHE7 proteins exhibit similar acetylesterase activities with all substrate concentrations tested

— PMC7114507 (Virus Research, 2010)
